# Measurements: ChEMBL document CHEMBL5385857, “Optimization and SAR research at the benzoxazole and tetrazole rings of JNJ4796 as new anti-influenza A virus agents, part 2” (Eur J Med Chem, 2023)
# Activity calls are given as the source filed them. No cut-off for these calls is given here.
# Tests used:
# [1] = Cytotoxicity against MDCK cells; assay type: toxicity, cell-based, Canis lupus familiaris; details: dog
# Influenza A virus [2] = assay: Antiviral activity against influenza A virus H1N1 infected in MDCK cells; assay type: functional, organism-based
# Influenza A virus [3] = assay: Antiviral activity against Influenza A virus H3N2 subtype; assay type: functional, organism-based
# [4] = system: Infectious bronchitis virus; assay: Antiviral activity against Infectious bronchitis virus; assay type: functional, organism-based
# [5] = Selectivity index, ratio of CC50 for MDCK cells to IC50 for influenza A virus infected in MDCK cells; assay type: toxicity, cell-based; details: dog, read-out: Ratio CC50/IC50
# [6] = Tmax in Balb/c mouse at 25 mg/kg, po administered as single dose; assay type: ADME, organism-based; details: in vivo
# [7] = Cmax in Balb/c mouse at 25 mg/kg, po administered as single dose; assay type: ADME, organism-based; design: dose 25 mg/kg, route po; details: in vivo
# hERG (KCNH2) = hERG (KCNH2) (Homo sapiens, UniProt Q12809); assay: Inhibition of hERG at 10 uM relative to control; assay type: toxicity
# [8] = AUC (0 to infinity) in Balb/c mouse at 25 mg/kg, po administered as single dose; assay type: ADME, organism-based; design: dose 25 mg/kg, route po; details: in vivo
# Influenza A virus [9] = assay: Antiviral activity against influenza A virus H1N1 A/Puerto Rico/8/1934 infected in Kunming mouse assessed as survival rate at 15 mg/kg, po administered with compound twice daily for 7 days followed by viral infection on day 2 and measured for 14 days relative to control; assay type: functional; details: H1N1 A/Puerto Rico/8/1934, 336 h, time 14 day
# [10] = Elimination half life in Balb/c mouse at 25 mg/kg, po administered as single dose; assay type: ADME, organism-based; details: in vivo, read-out: beta t1/2 (converted)
# Influenza A virus [11] = assay: Antiviral activity against influenza A virus H1N1 A/Puerto Rico/8/1934 infected in Kunming mouse assessed as survival rate at 1.67 mg/kg, po administered with compound twice daily for 7 days followed by viral infection on day 2 and measured for 14 days relative to control; assay type: functional; details: H1N1 A/Puerto Rico/8/1934, 336 h, time 14 day
# [12] = Gastrointestinal toxicity in Kunming mouse infected with influenza A virus H1N1 A/Puerto Rico/8/1934 assessed as soft stool at 1.67 to 15 mg/kg, po administered with compound twice daily for 7 days followed by viral infection on day 2 and measured for 14 days; assay type: organism-based; details: in vivo, 336 h, dose 1.67-15 mg/kg, time 14 day
# [13] = Toxicity in Kunming mouse infected with influenza A virus H1N1 A/Puerto Rico/8/1934 assessed as reduction in body weight at 1.67 to 15 mg/kg, po administered with compound twice daily for 7 days followed by viral infection on day 2 and measured for 14 days relative to oseltamivir; assay type: organism-based; details: in vivo, 336 h, dose 1.67-15 mg/kg, time 14 day
# Influenza A virus [14] = assay: Antiviral activity against influenza A virus H1N1 A/Puerto Rico/8/1934 infected in Kunming mouse assessed as survival rate at 5 to 15 mg/kg, po administered with compound twice daily for 7 days followed by viral infection on day 2 and measured for 14 days relative to control; assay type: functional; details: dose 5-15 mg/kg, time 14 day
# Chain of hERG (KCNH2) (Q12809 whole entry): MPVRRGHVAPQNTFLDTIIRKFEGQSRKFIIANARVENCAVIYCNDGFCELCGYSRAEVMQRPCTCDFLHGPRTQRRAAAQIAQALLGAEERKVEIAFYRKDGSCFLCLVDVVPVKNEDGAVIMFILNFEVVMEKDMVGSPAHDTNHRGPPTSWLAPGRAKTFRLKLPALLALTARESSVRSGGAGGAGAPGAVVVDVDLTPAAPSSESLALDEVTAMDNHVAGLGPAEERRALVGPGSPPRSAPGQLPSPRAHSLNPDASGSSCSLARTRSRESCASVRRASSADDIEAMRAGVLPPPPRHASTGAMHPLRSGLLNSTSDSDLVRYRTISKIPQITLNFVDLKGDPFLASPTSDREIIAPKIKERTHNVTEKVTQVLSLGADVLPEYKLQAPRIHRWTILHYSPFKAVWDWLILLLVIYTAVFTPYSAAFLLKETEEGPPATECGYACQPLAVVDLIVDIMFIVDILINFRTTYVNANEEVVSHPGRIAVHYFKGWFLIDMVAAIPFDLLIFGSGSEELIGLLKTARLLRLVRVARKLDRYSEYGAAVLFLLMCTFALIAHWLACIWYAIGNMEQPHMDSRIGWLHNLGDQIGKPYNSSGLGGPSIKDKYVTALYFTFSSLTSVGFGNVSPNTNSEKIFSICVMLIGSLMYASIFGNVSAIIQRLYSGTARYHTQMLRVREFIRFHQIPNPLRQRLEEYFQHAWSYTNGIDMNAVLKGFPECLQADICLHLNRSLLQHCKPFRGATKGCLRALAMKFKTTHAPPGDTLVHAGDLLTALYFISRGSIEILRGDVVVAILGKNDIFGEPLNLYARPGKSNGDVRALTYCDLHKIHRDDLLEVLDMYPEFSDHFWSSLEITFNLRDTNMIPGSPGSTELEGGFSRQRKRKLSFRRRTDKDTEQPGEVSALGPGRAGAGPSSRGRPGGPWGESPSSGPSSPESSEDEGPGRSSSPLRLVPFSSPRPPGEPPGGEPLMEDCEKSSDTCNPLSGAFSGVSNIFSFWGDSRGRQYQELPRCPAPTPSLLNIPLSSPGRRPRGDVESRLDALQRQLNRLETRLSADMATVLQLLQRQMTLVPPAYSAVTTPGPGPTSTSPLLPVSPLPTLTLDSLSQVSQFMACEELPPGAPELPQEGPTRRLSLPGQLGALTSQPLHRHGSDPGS
compound,measurement,setting,value
CC(=O)Nc1ccc2oc(-c3ccnc(C(=O)N4CCN(C(c5ccc(F)cc5)c5nnn(C6CC6)n5)CC4)c3)nc2c1 (stereo unspecified),CC50,[1],> 50 µM
same,IC50,Influenza A virus [2],1.19 µM
CC(=O)Nc1ccc2oc(-c3ccnc(C(=O)N4CCN(C(c5ccc(F)cc5)c5nnn(C)n5)CC4)c3)nc2c1 (stereo unspecified),Activity,Influenza A virus [3],inactive
same,Activity,[4],inactive
Cn1nnc(C(c2ccc(F)cc2)N2CCN(C(=O)c3cc(-c4nc5cc(NC(=O)C6CCCCC6)ccc5o4)ccn3)CC2)n1 (stereo unspecified),CC50,[1],1.43 µM
same,IC50,Influenza A virus [2],0.82 µM
CC(=O)Nc1ccc2oc(-c3ccnc(C(=O)N4CCN(C(c5ccc(F)cc5)c5nnn(CCC(C)C)n5)CC4)c3)nc2c1 (stereo unspecified),CC50,[1],> 50 µM
same,IC50,Influenza A virus [2],0.35 µM
CCCCn1nnc(C(c2ccc(F)cc2)N2CCN(C(=O)c3cc(-c4nc5cc(NC(C)=O)ccc5o4)ccn3)CC2)n1 (stereo unspecified),CC50,[1],> 50 µM
same,IC50,Influenza A virus [2],0.38 µM
CCCn1nnc(C(c2ccc(F)cc2)N2CCN(C(=O)c3cc(-c4nc5cc(NC(C)=O)ccc5o4)ccn3)CC2)n1 (stereo unspecified),CC50,[1],> 50 µM
same,IC50,Influenza A virus [2],0.63 µM
C=Cn1nnc(C(c2ccc(F)cc2)N2CCN(C(=O)c3cc(-c4nc5cc(NC(C)=O)ccc5o4)ccn3)CC2)n1 (stereo unspecified),CC50,[1],> 50 µM
same,IC50,Influenza A virus [2],0.27 µM
CC(=O)Nc1ccc2oc(-c3ccnc(C(=O)N4CCN([C@@H](c5ccc(F)cc5)c5nnn(CCC(C)C)n5)CC4)c3)nc2c1,selectivity ratio,[5],> 39
same,CC50,[1],> 100 µM
same,IC50,Influenza A virus [2],2.51 µM
CC(=O)Nc1ccc2oc(-c3ccnc(C(=O)N4CCN([C@H](c5ccc(F)cc5)c5nnn(CCC(C)C)n5)CC4)c3)nc2c1,selectivity ratio,[5],> 384
same,CC50,[1],> 100 µM
same,IC50,Influenza A virus [2],0.26 µM
CC(=O)Nc1ccc2oc(-c3ccnc(C(=O)N4CCN([C@H](c5ccc(F)cc5)c5nnn(C(C)C)n5)CC4)c3)nc2c1,Tmax,[6],15 min
same,selectivity ratio,[5],> 3330
same,Cmax,[7],3.77 µg/mL
same,CC50,[1],> 100 µM
same,inhibition at 10 µM,hERG (KCNH2),27.1%
same,IC50,Influenza A virus [2],0.03 µM
same,AUC(0-inf),[8],2.98 µg·h/mL
same,survival at 15 mg/kg,Influenza A virus [9],80%
same,half-life,[10],75 min
CC(=O)Nc1ccc2oc(-c3ccnc(C(=O)N4CCN([C@H](c5ccc(F)cc5)c5nnn(C6CCCC6)n5)CC4)c3)nc2c1,Tmax,[6],15 min
same,selectivity ratio,[5],792
same,Cmax,[7],0.992 µg/mL
same,CC50,[1],87.2 µM
same,IC50,Influenza A virus [2],0.11 µM
same,AUC(0-inf),[8],0.692 µg·h/mL
same,half-life,[10],26.5 min
CCCCn1nnc([C@@H](c2ccc(F)cc2)N2CCN(C(=O)c3cc(-c4nc5cc(NC(C)=O)ccc5o4)ccn3)CC2)n1,selectivity ratio,[5],> 714
same,CC50,[1],> 100 µM
same,IC50,Influenza A virus [2],0.14 µM
CC(=O)Nc1ccc2oc(-c3ccnc(C(=O)N4CCN([C@@H](c5ccc(F)cc5)c5nnn(C6CCCC6)n5)CC4)c3)nc2c1,selectivity ratio,[5],188
same,CC50,[1],96.2 µM
same,IC50,Influenza A virus [2],0.51 µM
CC(=O)Nc1ccc2oc(-c3ccnc(C(=O)N4CCN(C(c5ccc(F)cc5)c5nnn(CCC6CCCCC6)n5)CC4)c3)nc2c1 (stereo unspecified),CC50,[1],> 50 µM
same,IC50,Influenza A virus [2],0.82 µM
C=Cn1nnc([C@H](c2ccc(F)cc2)N2CCN(C(=O)c3cc(-c4nc5cc(NC(C)=O)ccc5o4)ccn3)CC2)n1,selectivity ratio,[5],> 34
same,CC50,[1],> 100 µM
same,IC50,Influenza A virus [2],2.93 µM
C=Cn1nnc([C@@H](c2ccc(F)cc2)N2CCN(C(=O)c3cc(-c4nc5cc(NC(C)=O)ccc5o4)ccn3)CC2)n1,Tmax,[6],15 min
same,selectivity ratio,[5],> 3330
same,Cmax,[7],2.13 µg/mL
same,CC50,[1],> 100 µM
same,inhibition at 10 µM,hERG (KCNH2),36.4%
same,IC50,Influenza A virus [2],0.03 µM
same,AUC(0-inf),[8],2.1 µg·h/mL
same,half-life,[10],94.2 min
CC(=O)Nc1ccc2sc(-c3ccnc(C(=O)N4CCN(C(c5ccccc5)c5nnnn5C(C)C)CC4)c3)nc2c1 (stereo unspecified),CC50,[1],38.5 µM
same,IC50,Influenza A virus [2],> 15 µM
CCCCn1nnc([C@H](c2ccc(F)cc2)N2CCN(C(=O)c3cc(-c4nc5cc(NC(C)=O)ccc5o4)ccn3)CC2)n1,selectivity ratio,[5],> 83
same,CC50,[1],> 100 µM
same,IC50,Influenza A virus [2],1.2 µM
Cn1nnc(C(c2ccc(F)cc2)N2CCN(C(=O)c3cc(-c4nc5cc(NC(=O)c6ccco6)ccc5o4)ccn3)CC2)n1 (stereo unspecified),CC50,[1],12.8 µM
same,IC50,Influenza A virus [2],0.22 µM
CCn1nnc(C(c2ccc(F)cc2)N2CCN(C(=O)c3cc(-c4nc5cc(NC(C)=O)ccc5o4)ccn3)CC2)n1 (stereo unspecified),CC50,[1],> 50 µM
same,IC50,Influenza A virus [2],0.63 µM
CC(=O)Nc1ccc2oc(-c3ccnc(C(=O)N4CCN([C@H](c5ccc(F)cc5)c5nnn(C)n5)CC4)c3)nc2c1,survival at 1.67 mg/kg,Influenza A virus [11],70%
same,CC50,[1],> 100 µM
same,Activity,[12],Toxic
same,Activity,[13],Non-Toxic
same,Survival,Influenza A virus [14],100%
CC(=O)Nc1ccc2oc(-c3ccnc(C(=O)N4CCN(C(c5ccc(F)cc5)c5nnn(C6CCCCC6)n5)CC4)c3)nc2c1 (stereo unspecified),CC50,[1],> 50 µM
same,IC50,Influenza A virus [2],0.27 µM
